What is called Kd is the free concentration of one partner at which half of the binding sites on the other are occupied at equilibrium, for simple one-to-one binding.

Results on one molecule are retold here after patent US20140315956A1, “SMALL MOLECULE INHIBITORS OF IL-6 AND USES THEREOF” (NATIONWIDE CHILDREN'S HOSPITAL, priority 2011, published 2014).

Several values for one entry are separate records, joined by “and”; a condition that tells them apart may be missing. Identical values can stand only once. Like-named read-outs stand apart in the source and are kept apart here.

The target of test [1] is T1, gp130 extracellular domain (recombinant gp130-Fc-HA) (Homo sapiens, UniProt P40189).
T1 construct: purified gp130 (amino residue 18-615); made in house; host or cells: HEK293T (plasmid from Dr. John J. Krolewski)
T1 sequence (P40189 18-615): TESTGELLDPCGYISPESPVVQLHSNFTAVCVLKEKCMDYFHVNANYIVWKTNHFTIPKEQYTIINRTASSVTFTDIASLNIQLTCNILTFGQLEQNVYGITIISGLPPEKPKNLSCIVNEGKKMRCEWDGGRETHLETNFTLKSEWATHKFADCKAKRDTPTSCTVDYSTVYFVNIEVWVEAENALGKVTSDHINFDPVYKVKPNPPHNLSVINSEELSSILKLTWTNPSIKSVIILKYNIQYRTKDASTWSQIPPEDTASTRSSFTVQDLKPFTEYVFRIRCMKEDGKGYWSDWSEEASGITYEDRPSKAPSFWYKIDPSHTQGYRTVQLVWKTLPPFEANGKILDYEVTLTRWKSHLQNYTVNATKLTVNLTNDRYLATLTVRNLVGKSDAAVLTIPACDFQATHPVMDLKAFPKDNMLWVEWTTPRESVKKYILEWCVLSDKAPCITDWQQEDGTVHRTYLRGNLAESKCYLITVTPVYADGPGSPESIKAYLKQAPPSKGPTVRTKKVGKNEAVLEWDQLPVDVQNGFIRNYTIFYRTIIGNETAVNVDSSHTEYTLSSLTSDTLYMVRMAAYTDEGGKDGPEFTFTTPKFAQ
The experiment in a line: Surface plasmon resonance direct binding to gp130-Fc-HA. On the procedure: HEK293T cells were grown in media containing DMEM+10% fetal bovine serum (FBS),100 U/ml penicillin and […] streptomycin (Invitrogen) in a humidified 37° C. incubator with 5% CO2. Plasmid DNA expressing gp130-Fc-HA was transfected in the form of calcium phosphate precipitate into HEK293T cells (ten T75 flasks containing 5.5×10^6 cells). The supernatant was harvested sixty hours post transfection and centrifuged to remove residual cells and adjusted to pH 8.0. The supernatant was passed through a 0.45 μm filter. The gp130-Fc-HA tagged protein was immunoprecipitated using anti-HA affinity matrix (Roche Applied Bioscience).A one milliliter column containing anti-HA affinity matrix was equilibrated with 20 mM Tris-HCl, 0.1M NaCl, 0.1 mM EDTA (pH 8.0). The supernatant was applied to the equilibrated column and the column was washed successively with 20 mM Tris-HCl, 1M NaCl (pH 8.0). Bound protein was eluted with HA peptide dissolved in equilibration buffer. The column was regenerated with 0.1 M glycine (pH 2.0). Fractions containing recombinant protein were pooled, dialyzed against HBS buffer [10 mM HEPES (pH 7.4), 0.15 M NaCl, 3 mM EDTA, 0.005% P20] and concentrated by Centricon 30 (Amicon) centrifugation. Protein concentration was determined using Bradford protein assay reagent (Pierce), with bovine serum albumin (BSA, Fisher Scientific) as a standard. The purified recombinant gp130 protein was analyzed using SDS-PAGE and immunoblotting.
Surface plasmon resonance (SPR) analysis was performed using BIAcore T100. Recombinant gp130-Fc-HA was cross-linked to the flow cell on a carboxymethylated dextran matrix of a CM5 sensor chip (BIAcore) using standard amino group coupling methods according to the manufacturer's instructions. Sodium acetate (10 mM, pH 3.5) gave the best immobilization of the protein on the chip surface and unreactive groups on the chip were blocked by ethanolamine according to the manufacturer's instructions. Approximately 5000 resonance units (RU) of gp130-Fc-HA were cross-linked to the flow cell. HBS+1% DMSO were used in all buffers (running and sample) to avoid background response due to differences in buffer refractive index. For the equilibrium analysis, various concentrations of MDL-A, 1, and 2 were injected for a period of 2 min at a flow rate of 30 μl/min, in series, into flow cells containing covalently bound gp130-fc-HA and reference flow cell. Bound ligand (MDL-A, 1, and 2) in each assay was removed by passing 10 mM glycine (pH 2.2) over the chip surface. Biacore T100 Evaluation 2.0 was used for all interaction analyses. The steady-state equilibrium response (RUeq) was determined from the reference-subtracted sensogram. The kinetics parameter was calculated according to a 1:1 Langmuir binding model (A+B ? AB) by direct fitting of ligand binding sensor grams at multiple concentrations. The dissociation equilibrium constant is defined as dissociation constant (KD)=dissociation rate constant (kd)/association rate constant (ka). KD was determined by scattered analysis of equilibrium-state data obtained at different concentrations of analogues.
To examine the direct binding and calculation of equilibrium dissociation constant (KD) of MDL-A analogues with gp130 extracellular domain, surface plasmon resonance analysis was done. Protein was covalently cross linked to the dextran matrix of the biosensor chip CM5. Successively, various concentrations of MDL-A and MDL-A analogues were injected into the flow cells containing bound protein and no protein (reference). Interactions were monitored in real time and KD values were calculated by reference-substrated sensogram.
To examine the direct binding and calculate the equilibrium dissociation constant (KD) of MDL-A analogues with gp130 extracellular domain, surface plasmon resonance analysis was performed. Surface plasmon resonance (SPR) analysis was performed using a BIAcore T100. […]

Test [2] relates to IL-6-independent MH60 cells. The settings on record: Omura and coworkers; cited from earlier work.

With `CCCCC1=C(C)C(=O)[C@@](C)(CN2c3ccccc3[C@]3(O)CCO[C@H]23)C1=O` [MDL-A, (+)-Madindoline A, reference compound], the equilibrium dissociation constant (Kd) in test [1] (gp130 extracellular domain, Biacore evaluation software 2.0, read-out: KD) was 288 µM; in test [1] (values in running text and figure legend, read-out: dissociation constant (KD)), ~300 µM and ~290 µM. In addition, the “growth of IL-6-independent MH60 cells” value in test [2] is “unaffected”.
